In PubChem BioAssay (NCI):
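The compound was tested at five concentrations on cells cultured in 96-well plates, with a 48-hour exposure period. GI50 marks 50% less growth. TGI denotes the concentration required for complete inhibition of growth.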

Columns and labels:
Experiment in all cases: inhibition of tumour cell growth, NCI panel, 48 h
CAKI-1 renal = tested on: CAKI-1 renal
HCT-116 colon = tested on: HCT-116 colon
NCI-H460 lung = tested on: NCI-H460 lung
OVCAR-4 ovarian = tested on: OVCAR-4 ovarian
PC-3 prostate = tested on: PC-3 prostate
SF-295 CNS = tested on: SF-295 CNS
SNB-19 CNS = tested on: SNB-19 CNS
SR leukemia = tested on: SR leukemia
EKVX NSCLC = tested on: EKVX NSCLC
RXF 393 renal = tested on: RXF 393 renal

SMILES	GI50 (CAKI-1 renal) [µM]	TGI (CAKI-1 renal) [µM]	GI50 (HCT-116 colon) [µM]	TGI (HCT-116 colon) [µM]	GI50 (NCI-H460 lung) [µM]	TGI (NCI-H460 lung) [µM]	GI50 (OVCAR-4 ovarian) [µM]	TGI (OVCAR-4 ovarian) [µM]	GI50 (PC-3 prostate) [µM]	TGI (PC-3 prostate) [µM]	GI50 (SF-295 CNS) [µM]	TGI (SF-295 CNS) [µM]	GI50 (SNB-19 CNS) [µM]	TGI (SNB-19 CNS) [µM]	GI50 (SR leukemia) [µM]	TGI (SR leukemia) [µM]	TGI (EKVX NSCLC) [µM]	TGI (RXF 393 renal) [µM]	GI50 (EKVX NSCLC) [µM]	GI50 (RXF 393 renal) [µM]
CCCCCCN1CCN(Cc2ccc(N(CC)CC)cc2)C(=O)C1=O	7.23	> 100	3.92	> 100	3.35	17.3	6.73	79.6	2.97	54	3.02	> 100	4.08	> 100	1.03	13.4				
O=CN1CCN(C=S)CC1		> 100		> 100		> 100		> 100				> 100		> 100		> 100	> 100	> 100		
CNC(=O)OCc1[nH]ccc2c(C)c3nc4ccc(OC)cc4c3cc12		> 100		> 100				66.1				> 100		> 25.1		1.98	> 100	8.72		
COc1cc2c3c(n(CCCNCCNCCCN)c(=O)c2cc1OC)-c1cc2c(cc1C3=O)OCO2	5.68	24.1	1.29	2.56	6.41	> 100	4.64	19.9	13.2	56.3	2.79	17.4	5.73	31.2			69.9	93.1	29.8	13
COC(=O)C1=Cc2c(cc(OC)c(OC)c2OC)[C@H](c2ccc(OC)c(OC)c2OC)C1C(=O)OC (some centres undefined)		> 100		> 100		> 100		> 100				> 100		> 100		> 100	> 100	> 100		
Cc1ccc(F)cc1NC(=O)c1cc(Cl)ccc1Nc1ccccc1	> 100	> 100	> 100	> 100	> 100	> 100	15.9	> 100	> 100	> 100	56	> 100	> 100	> 100	> 100	> 100		> 100		74.7
NC(N)=N/N=C/c1c(-c2ccc(Cl)c([N+](=O)[O-])c2)nc2ccccn12	11.8	42.4	0.362	1.55					1.37	2.65	1.82	3.42					13		2.5	
Clc1cc(Cl)cc(Nc2nc3ccccc3nc2-c2cccs2)c1				72		41.6						45.8				> 100	> 100	39.9		
COc1ccc(/C=C\c2cc(OC)c(OC)c(OC)c2)cc1OCC(=O)Nc1nc2ccc(OC(F)(F)F)cc2s1	4.6	> 100	3.92	> 100	4.11	> 100	5.34	> 100	5.12	> 100	3.7	> 100	7.08	> 100	3.55	> 100	> 100		7.89	
COc1ccc2[nH]cc(-c3nc(-c4c[nH]c5ccncc45)cs3)c2c1	2.86	9.13	1.77	3.33	1.84	3.73	2.94	8.85	2.13	5.23	1.7	3.19	1.97	3.8			4.88	3.33	1.99	1.74
C[Si]12OCCCN(CCO1)CCO2		> 100		> 100		> 100						> 100		> 100		> 100	> 100	> 100		
CC1CC2(CCC1OCc1ccccc1)OCCO2 (centres undefined)		> 100		> 100		> 100		> 100				> 100		> 100			> 100	> 100		
CC(=O)O[C@H]1CC[C@@]2(C)C(=CC[C@@H]3C2CC[C@]2(C)Nc4[nH]ncc4CC32)C1 (some centres undefined)		> 100		29.9		33.7		37.2				> 100					> 100	> 100		
Cc1ccc(Oc2nc3ccccc3cc2-c2nnc(Cn3c(COc4ccccc4)nc4ccccc43)o2)cc1	2.29	14.9	0.431	1.64	10.4	24.4	2.36	10.2	2.71	15.4	3.48	14.1	3.78	17	0.734	8.53		10.6		2.71
CN(C)CCNC(=O)c1nc([N+](=O)[O-])cn1C		> 100		> 100		> 100		> 100		> 100		> 100		> 100		> 100				
CCOC(=O)C1=C(c2ccccc2)N(c2ccc(OC)cc2)[C@]2(C#N)C(O)=C(Cl)C(Cl)=C(O)[C@]12C#N	27.9	80.1	16.3	29.8	35	> 100	46.3	> 100			25.9	76.7	20.5	42.1	11.5	28.8	> 100	31.5	40.1	17.4
COc1ccccc1NC(=O)CC(=O)NNCC(=O)Nc1nnc(-c2ccccc2)o1		> 100		> 100				> 100				> 100		> 100		> 100	> 100			
CCC[CH2][Sn]1([CH2]CCC)[O]C(=O)CN=Cc2ccccc2[O]1	0.182	0.631	0.71	2.09	1.28	2.6	0.881	2.32			1.14	2.37	0.222	0.556			1.81	0.306	0.477	0.144
CC1=CC2CC(C)C1(C)CCc1ccoc12 (centres undefined)		> 100		> 100		> 100		> 100				> 100		> 100		> 100	> 100	> 100		
